# Measurements taken from ChEMBL document CHEMBL3880395, “Novel compounds and methods of use thereof” (2003).
# Calls of active or inactive are those of the source. The rule behind the calls is not given here.
# Legend:
# Rattus norvegicus [1] = organism: Rattus norvegicus; assay: Antiangiogenic activity in Sprague-Dawley rat thoracic aortic rings assessed as inhibition of capillary like tube formation at 0.3 ug/ml for 5 days by MTT/MTS assay; type: functional; details: Thoracic aorta
# [2] = Cytotoxicity against human HONE1 cells assessed as reduction in cell growth after 72 hrs by MTS assay; type: functional, cell-based; details: HONE1, 72 h
# [3] = Toxicity in athymic nude mouse xenografted in human SW480 cells xenografted assessed as body weight loss at 200 mg/kg, administered via oral gavage daily for 6 weeks measured twice per every week for 70 days; type: organism-based; details: in vivo, 1680 h
# [4] = Toxicity in DBA/2J mouse implanted with mouse P388 cells assessed as body weight loss at 5 to 400 mg/kg, po administered daily for 4 days measured twice daily during compound dosing; type: organism-based; details: in vivo, 96 h
# [5] = Anticancer activity against mouse P388 cells implanted in DBA/2J mouse assessed as increase in life span at 200 mg/kg, po administered daily for 4 days measured twice daily during compound dosing; type: functional; details: 96 h
# P388 = assay: Anticancer activity against mouse P388 cells implanted in po dosed DBA/2J mouse assessed as increase in life span administered daily for 4 days measured twice daily during compound dosing; type: functional, organism-based
# [6] = Toxicity in DBA/2J mouse implanted with mouse P388 cells assessed as body weight loss at 25 to 400 mg/kg, po administered daily for 4 days measured twice daily during compound dosing; type: organism-based; details: in vivo, 96 h
# Rattus norvegicus [7] = organism: Rattus norvegicus; assay: Antiangiogenic activity in Sprague-Dawley rat thoracic aortic rings assessed as inhibition of capillary like tube formation at 1 ug/ml for 5 days by MTT/MTS assay; type: functional; details: Thoracic aorta
SMILES,inhibition (Rattus norvegicus [1]),also measured
Cc1cc(Cn2cc(C(=O)C(=O)Nc3ccc4ncccc4c3)c3ccccc32)on1,Active,–
O=C(Nc1ccc2ncccc2c1)C(=O)c1cn(Cc2cscn2)c2ccccc12,Active,–
Cc1cc(NC(=O)C(=O)c2cn(Cc3ccco3)c3ccccc23)sn1,Active,–
Cc1cc(Cn2cc(C(=O)C(=O)Nc3cc(C)ns3)c3ccccc32)on1,Active,IC50 [2]: 3 to 4 nM; Activity [3]: Non-Toxic; Activity [4]: Non-Toxic; ILS at 200 mg/kg [5]: 100%; ILS (P388): Dose-dependent effect
N#Cc1ccc(Cn2cc(C(=O)C(=O)Nc3ccc(I)cc3)c3ccccc32)cc1,Active,–
Cc1cc(NC(=O)C(=O)c2cn(Cc3cc(C(C)C)no3)c3ccccc23)sn1,Active,–
O=C(Nc1ccc2ncccc2c1)C(=O)c1cn(Cc2ccsc2)c2ccccc12,–,Activity [6]: Non-Toxic; ILS (P388): Dose-dependent effect
Cc1cc(NC(=O)C(=O)c2cn(Cc3ccc(C#N)cc3)c3ccccc23)sn1,Active,Activity [6]: Non-Toxic; ILS (P388): Dose-dependent effect
Cc1cc(NC(=O)C(=O)c2cn(Cc3cccs3)c3ccccc23)sn1,–,inhibition (Rattus norvegicus [7]): Active
Cc1cc(Cn2cc(C(=O)C(=O)Nc3ccc(Br)cc3)c3ccccc32)on1,Active,–
O=C(Nc1ccncc1)C(=O)c1cn(Cc2ccc(Cl)cc2)c2ccccc12,–,inhibition (Rattus norvegicus [7]): Active
O=C(Nc1ccc2ncccc2c1)C(=O)c1cn(Cc2ccco2)c2ccccc12,Active,–
CCc1cc(Cn2cc(C(=O)C(=O)Nc3cc(C)ns3)c3ccccc32)on1,Active,–
COc1ccc(NC(=O)C(=O)c2cn(Cc3ccccc3C#N)c3ccccc23)cc1,Active,–
Cc1cc(NC(=O)C(=O)c2cn(Cc3ccsc3)c3ccccc23)sn1,Active,–
Cc1cc(NC(=O)C(=O)c2cn(Cc3ccno3)c3ccccc23)sn1,Active,–
N#Cc1ccc(Cn2cc(C(=O)C(=O)Nc3ccc4ncccc4c3)c3ccccc32)cc1,Active,–
